{"source": "patent US5866577A", "about": "“Aromatic amidine derivatives and salts thereof” (priority 1991, dated 1999)", "key": {"[1]": {"system": "male Slc:SD rats", "experiment": "Toxicity Test by Single Oral Administration to Rat", "details": "in vivo"}, "[2]": {"system": "human blood plasma (clotting time)", "experiment": "Measurement of Anticoagulant Activity (plasma clotting time, CT2)", "format": "biochemical", "details": "concentration which doubles the control clotting time, 37° C.", "protocol": "Measurement of Anticoagulant Activity A blood plasma sample was prepared from human blood using a centrifuge. […] Thereafter, clotting time was measured using CLOTEC (Sanko Junyaku Co., Ltd.). A clotting time measured without adding a compound to be tested was used as a control, and a concentration of the test compound which doubles the control clotting time was calculated (hereinafter referred to as \"CT2\") as an index of the anticoagulant activity."}, "[3]": {"system": "male Slc:SD rats", "experiment": "Toxicity Test by Repeated Oral Administration to Rat", "format": "in vivo", "protocol": "Toxicity Test by Repeated Oral Administration to Rat\nEach of the compounds of the present invention was dissolved in distilled water and administered orally to each of five five-week old male Slc:SD rats, at a dose of 800 mg/kg body weight. The oral administration was carried out once a day and repeated for 10 days to observe mortality."}, "[4]": {"experiment": "Measurement of Solubility in Water", "quoted_text": "A fixed amount of water was added to a varying amounts of each sample, and the mixture was agitated on a shaker at 25° C. for 10 minutes."}, "[5]": {"system": "thrombus formed on copper wire in arteriovenous shunt", "experiment": "Antithrombotic Effect by Oral Administration to Rat in an Arteriovenous Shunt Model", "format": "in vivo, male STD:Wistar rat", "details": "for Thrombus formed: mean ± S.E. (n = 6), p < 0.05 per control", "protocol": "Antithrombotic Effect by Oral Administration to Rat in an Arteriovenous Shunt Model\nAmtithrombotic effect by oral administration of the compound of the present invention was measured by slightly modifying the procedure disclosed in Thrombosis Research, vol. 54, pp. 399-410, 1989.\nA predetermined amount of a compound to be tested was dissolved in purified water and administered orally to a male STD:Wistar rat, and the rat was anesthetized 15 minutes after the administration. An artery clip was attached to proximally the carotid artery of the thus anesthetized rat to stop blood circulation and to insert and fix an end of a shunt filled with physiological saline, while the other end of the shunt was inserted into the jugular vein and fixed. In this instance, the shunt was prepared by indwelling a copper wire (0.17 mm in diameter and 20 cm in length) in a polyethylene tube (Hibiki No. 5; 5/3 mm in outer diameter and 21 cm in length) and connecting each end of the tube with a polyethylene tube (Hibiki No. 3; 1 mm in outer diameter and 3 cm in length) using a 3 mm silicone tube. After 30 minutes of the administration, the artery clip was removed to flow blood into the shunt. After 7 minutes of the blood recirculation, the copper wire was pulled out together with formed thrombus and washed with 10 ml of physiological saline. Thereafter, the amount of thrombus formed on the copper wire was determined as protein in accordance with the procedure disclosed in Journal of Biological Chemistry, vol. 193, pp. 265-275, 1951. As a control, water was administered instead of the compound to be tested to calculate thrombosis inhibition rate after administration of the compound."}, "[6]": {"details": "prior-art statement; cited from earlier work"}, "[7]": {"molecular_target": "human FXa (Homo sapiens, UniProt P00742)", "sequence (P00742 235-488 limits assumed)": "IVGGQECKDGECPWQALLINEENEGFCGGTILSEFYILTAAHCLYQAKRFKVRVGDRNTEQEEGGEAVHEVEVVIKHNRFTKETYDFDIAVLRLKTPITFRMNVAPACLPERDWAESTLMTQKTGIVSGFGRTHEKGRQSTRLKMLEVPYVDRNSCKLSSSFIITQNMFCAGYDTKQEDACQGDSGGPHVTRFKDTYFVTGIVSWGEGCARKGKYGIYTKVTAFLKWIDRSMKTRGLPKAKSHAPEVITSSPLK", "sequence (P00742 41-179 limits assumed)": "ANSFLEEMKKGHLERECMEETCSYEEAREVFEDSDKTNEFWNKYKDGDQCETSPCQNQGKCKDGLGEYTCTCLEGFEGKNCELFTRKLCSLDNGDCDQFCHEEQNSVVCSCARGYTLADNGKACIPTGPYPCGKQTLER", "experiment": "Measurement of Activated Blood Coagulation Factor X (FXa) Inhibition Activity", "format": "biochemical", "details": "substrate S-2222, 37° C., 15 minutes", "protocol": "Measurement of Activated Blood Coagulation Factor X (FXa) Inhibition Activity\nA 180 μl portion of physiological saline solution containing a compound to be tested was mixed with 200 μl of Tris-HCl buffer (pH 8.4) and 100 μl of 1 mM S-2222 (KabiVitrum AB) aqueous solution, and the mixture was incubated at 37° C. 20 μl of Tris-HCl buffered saline (pH 7.45) containing 0.6 unit/ml of human FXa was added to the mixture. After 15 minutes of incubation at the same temperature, the reaction was stopped by adding 100 μl of 60% acetic acid, and absorbance of the reaction mixture was measured. A reaction mixture with no addition of a test compound was used as a blank, and another reaction mixture in which 60% acetic acid was added prior to the addition of FXa was used as a control."}, "[8]": {"system": "FXa and thrombin", "details": "prior-art statement; cited from earlier work"}, "[9]": {"system": "anticoagulant effect", "details": "oral; prior-art statement; cited from earlier work"}, "[10]": {"experiment": "Solubility observed in preparation (solubility to any solvent)", "format": "physicochemical", "details": "hydrochloride monohydrate"}, "[11]": {"details": "oral 800 mg/kg once a day for 10 days, 5 rats administered"}}, "note": "Where a name gives a salt, the structure may show the parent alone."}
{"smiles": "CC(=N)N1CC[C@H](Oc2ccc(C(Cc3ccc4ccc(C(=N)N)cc4c3)C(=O)O)cc2)C1.Cl.O.O.O.O.O", "note": "(single isomer, unassigned; (+)) [Inventive Example 45]", "values": [{"measurement": "mortality", "setting": "[1]", "result": "No mortal case"}, {"measurement": "Anti-Coagulation CT2", "setting": "[2]", "result": 0.49, "unit": "µM"}, {"measurement": "Mortal Case", "setting": "[3]; [11]", "result": 0}, {"measurement": "solubility at 10 min", "setting": "[4]", "result": "≥ 200", "unit": "mg/mL"}, {"measurement": "Thrombosis inhibition", "setting": "[5]; 10 mg/kg", "result": 34, "unit": "%"}, {"measurement": "Thrombus formed", "setting": "[5]; 10 mg/kg", "result": "585 ± 85", "unit": "µg"}, {"measurement": "Thrombosis inhibition", "setting": "[5]; 30 mg/kg", "result": 60, "unit": "%"}, {"measurement": "Thrombus formed", "setting": "[5]; 30 mg/kg", "result": "356 ± 51", "unit": "µg"}]}
{"smiles": "N=C(N)c1ccc2oc(CCc3cc4cc(C(=N)N)ccc4o3)cc2c1", "note": "[DABE, 1,2-bis(5-amidino-2-benzofuranyl)ethane, reference compound]", "values": [{"measurement": "water solubility (in words)", "setting": "[6]", "result": "very low water solubility"}, {"measurement": "IC50", "setting": "[7]", "result": 95, "unit": "nM"}, {"measurement": "Anti-Coagulation CT2", "setting": "[2]", "result": 1.6, "unit": "µM"}, {"measurement": "separation of FXa and thrombin inhibitory activities (in words)", "setting": "[8]", "result": "cannot be separated sufficiently from each other"}, {"measurement": "anticoagulant effect when administered orally (in words)", "setting": "[9]", "result": "does not show its anticoagulant effect when administered orally"}, {"measurement": "solubility at 10 min", "setting": "[4]", "result": "≤ 5", "unit": "mg/mL"}]}
{"smiles": "Cl.N=C(N)c1ccc2ccc(CC(C(=O)O)c3ccc(OCC4CCNCC4)cc3)cc2c1.O", "note": "(stereo not drawn) [Inventive Example 18, 3-(7-amidino-2-naphthyl)-2-[4-[(4-piperidinyl)methoxy]-phenyl]propionic Acid Hydrochloride Monohydrate]", "values": [{"measurement": "solubility to any solvent (in words)", "setting": "[10]", "result": "very low"}]}
{"smiles": "Cl.Cl.N=C(N)c1ccc2oc(CC(C(=O)O)c3ccc(O[C@H]4CCNC4)cc3)cc2c1", "note": "(stereo partly drawn) [Inventive Example 19, 3-(5-amidino-2-benzofuranyl)-2-[4-[((3S)-3-pyrrolidinyl)-oxy]phenyl]propionic Acid Dihydrochloride]", "values": [{"measurement": "Mortal Case", "setting": "[3]; [11]", "result": 0}, {"measurement": "solubility at 10 min", "setting": "[4]", "result": "≥ 450", "unit": "mg/mL"}]}
{"smiles": "Cl.Cl.N=C(N)c1ccc2sc(CC(C(=O)O)c3ccc(O[C@H]4CCNC4)cc3)cc2c1", "note": "(stereo partly drawn) [Inventive Example 25, 3-(5-amidinobenzo[b]thien-2-yl)-2-[4-[((3S)-3-pyrrolidin-yl)oxy]phenyl]propionic Acid Dihydrochloride]", "values": [{"measurement": "Mortal Case", "setting": "[3]; [11]", "result": 0}, {"measurement": "solubility at 10 min", "setting": "[4]", "result": "≥ 500", "unit": "mg/mL"}]}
{"smiles": "Cl.Cl.N=C(N)c1ccc2cc(CC(C(=O)O)c3ccc(O[C@H]4CCNC4)cc3)[nH]c2c1", "note": "(stereo partly drawn) [Inventive Example 69, 3-(6-amidino-2-indolyl)-2-[4-[((3S)-3-pyrrolidinyl)oxy]-phenyl]propionic Acid Dihydrochloride]", "values": [{"measurement": "Mortal Case", "setting": "[3]; rat, in vivo, po, 800 mg/kg", "result": 0}]}
{"smiles": "CC(=N)N1CC[C@H](Oc2ccc(C(Cc3cc4cc(C(=N)N)ccc4s3)C(=O)O)cc2)C1", "note": "(stereo partly drawn) [Inventive Example 88, 2-[4-[((3S)-1-acetimidoyl-3-pyrrolidinyl)oxy]phenyl]-3-(5-amidinobenzo[b]thien-^2-yl)propionic Acid Dihydrochloride]", "values": [{"measurement": "Mortal Case", "setting": "[3]; [11]", "result": 0}]}
